Experimental data published in patent US8105833B2, “Method for forming organ” (Research Foundation Itsuu Laboratory, priority 2003, dated 2012).

What was measured:
[1] = system: embryoid bodies from ES cells (E14 cells or B6 cells); assay: Formation of heart (autonomically beating cardiac muscle-like cell aggregates) from embryoid bodies using RXR ligand; assay type: cell-based, mouse; set-up: frequency of appearance of autonomically beating cardiac muscle-like cell aggregates: dose or concentration left out as unconfirmed
Experimental: (§1) As ES cells, E 14 cells of the 29 mouse strain (ATCC #: CRL-1821) or B6 cells of the C57BL mouse strain (ATCC #: SCRC-1002) were used. Mouse fetal fibroblasts prepared from a mouse embryo on the 13th day were inoculated on a 0.1% gelatin-coated culture dish, and cultured in a medium containing 12% fetal bovine serum (Gibco), 100 U/ml penicillin (Sigma) and 100 μg/ml streptomycin (Sigma) for 24 hours. These cells were treated with 10 μg/ml mytomicin C (MMC, Sigma) for four hours to inhibit cell division and then washed twice with phosphate-buffered saline (PBS) to remove MMC. The ES cells were inoculated on these fibroblasts (feeder). As the medium for the ES cells, D-MEM (high glucose, Gibco) containing 15% fetal bovine serum for ES (Gibco), 2 mM L-glutamine (Gibco), MEM non-essential amino acid (Sigma), 1 mM sodium pyruvate (Gibco), 0.0007% β-mercaptoethanol (Sigma), 1000 U/ml Leukemia inhibiting factor (Chemicon), 100 U/ml penicillin (Sigma) and 100 μg/ml streptomycin (Sigma) was used, and the cells were cultured in a CO2 incubator (5% CO2, 100% humidity) at 37° C. The medium was exchanged every day.
(§2) Subculture was performed 72 hours after the inoculation of the ES cells. MMC-treated feeder cells (mouse fetus fibroblasts) were inoculated on a gelatin-coated culture dish, and after 24 hours, the ES cells completely dissociated by a treatment with 0.05% trypsin-0.02% EDTA were inoculated to allow formation of colonies (see, FIG. 1). The ES cells were cultured for three days after the inoculation to allow formation of colonies, and a colony was isolated by pipetting and then inoculated on a culture dish for bacteria with an extremely low cell attachment property. As the medium, D-MEM (high glucose) containing 15% Knockout SR (KSR, Gibco), 100 U/ml penicillin and 100 μg/ml streptomycin was used. The cells were further cultured for three days under this condition to prepare embryoid bodies (FIG. 2). […]

[2] = system: animal cap cells (pluripotent cell aggregates) at the blastula stage; conditions: activin at a high concentration; cited from earlier work
[3] = system: embryoid bodies from ES cells; assay: Formation of smooth muscle-like cells from embryoid bodies using RXR ligand; assay type: cell-based, mouse; conditions: 1×10^−5 to 2×10^−6 M PA024, then further cultured
Experimental: as §1
Subculture was performed 72 hours after the inoculation of the ES cells. […]

[4] = system: embryoid bodies from ES cells; assay: Formation of adipocytes from embryoid bodies using RXR ligand; assay type: cell-based, mouse; set-up: adipocytes formed in comparison with the control group (all-trans retinoic acid): dose or concentration left out as unconfirmed
Experimental: as §1, §2

## CC1=C(/C=C/C(C)=C/C=C/C(C)=C/C(=O)O)C(C)(C)CCC1 [all-trans retinoic acid]
[1]; control group treated with 1×10^−5 M, over two weeks after the treatment
  differentiation of cardiac muscle-like cells: almost no differentiation

## activin
[2]
  formation rate of rhythmically beating heart: 60%

## CC1(C)CCC(C)(C)c2cc(N(CC3CC3)c3ncc(C(=O)O)cn3)ccc21 [PA024, 2-[N-cyclopropylmethyl-N-(5,6,7,8-tetrahydro-5,5,8,8-tetramethylnaphthalen-2-yl)amino]pyrimidine-5-carboxylic acid]
[3]
  time of formation of smooth muscle-like cells: one to two
[4]; 1×10^−5 to 2×10^−6 M PA024
  time of appearance of adipocytes: about two
[4]; 1×10^−5 to 2×10^−6 M PA024, culture continued for 20 days
  adipocyte formation in terms of the value per embryoid body: ~100%
[4]; PA024 treated group versus all-trans retinoic acid control
  adipocytes formed in comparison with the control group (all-trans retinoic acid): two or three times more
[1]; 2×10−6 M PA024
  formation of cardiac muscle-like cell aggregates: 0.5 cell aggregate per embryoid body
[1]; PA024, cultured for 2 days
  frequency of appearance of autonomically beating cardiac muscle-like cell aggregates: 0.2 cell aggregate per embryoid body
